Assay results as given in paper PMC11109252, “Synthetic aporphine alkaloids are potential therapeutics for Leigh syndrome” (Scientific Reports, 2024).

Legend:
[1] = system: LS patient-derived skin fibroblasts; test: Anti-BSO-induced cell death activity assay; conditions: Homo sapiens, Skin fibroblast, 48 h, read-out: Anti-BSO-induced cell death effect EC50, co-added with BSO at a concentration giving 10%-20% cell viability; viable cells 48 h after addition
[2] = target: T1, dopamine D2 receptors (Homo sapiens, UniProt P14416); test: Dopamine D2 receptor agonist assay (GeneBLAzer D2-Gqo5-NFAT-bla CHO-K1 reporter); format: cell-based; conditions: CHO cells stably expressing dopamine D2 receptors; NA: no activity; read-out: Dopamine D2 receptor agonist (DA) activity EC50
T1 construct: host or cells: CHO-K1 (GeneBLAzer D2-Gqo5-NFAT-bla)
T1 sequence (P14416 whole entry): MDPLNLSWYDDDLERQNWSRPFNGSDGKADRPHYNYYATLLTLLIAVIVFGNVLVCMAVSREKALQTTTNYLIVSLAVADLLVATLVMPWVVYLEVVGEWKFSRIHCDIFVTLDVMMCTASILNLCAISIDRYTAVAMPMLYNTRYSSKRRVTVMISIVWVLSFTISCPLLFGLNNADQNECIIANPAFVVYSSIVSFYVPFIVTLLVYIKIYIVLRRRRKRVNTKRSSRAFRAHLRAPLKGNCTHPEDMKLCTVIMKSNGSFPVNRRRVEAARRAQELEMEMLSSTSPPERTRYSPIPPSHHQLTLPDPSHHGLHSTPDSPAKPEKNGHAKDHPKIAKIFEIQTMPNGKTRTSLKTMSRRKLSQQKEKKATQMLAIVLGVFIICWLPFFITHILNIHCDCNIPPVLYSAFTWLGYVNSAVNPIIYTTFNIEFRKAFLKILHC
Description: CHO-K1 cells were spread in 384-well plates at 10,000 cells/32 μL/well, taking care not to touch the bottom of the wells. Cell-free-wells were injected with the same volume (32 μL) of assay medium. The plates were then incubated in a CO2 incubator for 16–20 h. […] The diluted solution (8 μL/well) was added to 384-well plates seeded with CHO-K1 cells and incubated in a CO2 incubator for 5 h. […] The addition of the drug induces D2 receptor activation, which activates signaling pathways and transcription factors, resulting in the expression of a reporter gene (β-lactamase) and cleavage of the fluorescence resonance energy transfer (FRET) substrate, causing the fluorescence to change from green to blue.

[3] = system: GDF-15; test: GDF-15 levels in the cell supernatant (ELISA); format: cell-based, human; conditions: 24 h after co-administration with RSL3, compared to RSL3-only
Description: GDF-15 is a biomarker that is elevated in the blood of patients with mitochondrial diseases and is used for the diagnosis of mitochondrial diseases and determination of therapeutic efficacy[26],[36]. […] As previously reported, GDF-15 levels were measured by an enzyme-linked immuno sorbent assay (ELISA) using the Quantikin Human GDF-15 ELISA Kit (R&D Systems, Minneapolis, MN, USA). Samples were obtained from anti-RSL3-induced cell death assays with candidate compounds (D31, D55, and D40), and cell supernatants 24 h after reagent addition were used for the assay. Measured values were calculated with reference to internal standards and compared to GDF-15 values.

Row | EC50 [2] [nM] | Compound | EC50 [1] [nM] | GDF-15 elevation in cell supernatant [3]
1 |  | CN1CCc2cccc3c2[C@H]1Cc1ccc(OCCCCc2ccccc2)c(O)c1-3 [D50, (9R)-10-methyl-4-(4-phenylbutoxy)-10-azatetracyclo[7.7.1.0²,⁷.0¹³,¹⁷]heptadeca-1(17),2,4,6,13,15-hexaen-3-ol] | 207 | 
2 |  | CCCCCCCCCOc1ccc2c(c1O)-c1cccc3c1[C@@H](C2)N(C)CC3 [D41, (9R)-10-methyl-4-(nonyloxy)-10-azatetracyclo[7.7.1.0²,⁷.0¹³,¹⁷]heptadeca-1(17),2,4,6,13,15-hexaen-3-ol] | 648 | 
3 |  | COc1cc2c(cc1O)C[C@@H]1c3c(cc(O)c(OC)c3-2)CCN1C [D19, (9R)-4,16-dimethoxy-10-methyl-10-azatetracyclo[7.7.1.0²,⁷.0¹³,¹⁷]heptadeca-1(17),2,4,6,13,15-hexaene-5,15-diol] | 5180 | 
4 |  | CN1CCc2cccc3c2[C@H]1Cc1ccc(OCCCC(F)(F)F)c(O)c1-3 [D42, (9R)-10-methyl-4-(4,4,4-trifluorobutoxy)-10-azatetracyclo[7.7.1.0²,⁷.0¹³,¹⁷]heptadeca-1(17),2,4,6,13,15-hexaen-3-ol] | 167 | 
5 |  | COc1cc2c(cc1OC)-c1c(OC)c(OC)cc3c1[C@@H](C2)N(C)CC3 [D11, (9R)-4,5,15,16-tetramethoxy-10-methyl-10-azatetracyclo[7.7.1.0²,⁷.0¹³,¹⁷]heptadeca-1(17),2,4,6,13,15-hexaene] | 6920 | 
6 |  | COc1cc2c(cc1O)CC1NCCc3cc(OC)c(OC)c-2c31 (centres unmarked) [D25, 4,15,16-trimethoxy-10-azatetracyclo[7.7.1.0²,⁷.0¹³,¹⁷]heptadeca-1(17),2(7),3,5,13,15-hexaen-5-ol] | 2050 | 
7 |  | COc1ccc2c(c1OC)C[C@@H]1c3c(cc4c(c3-2)OCO4)CCN1C [D8, (12R)-15,16-dimethoxy-11-methyl-3,5-dioxa-11-azapentacyclo[10.7.1.0²,⁶.0⁸,²⁰.0¹⁴,¹⁹]icosa-1(20),2(6),7,14,16,18-hexaene] | 180 | 
8 |  | CN1CCc2cccc3c2[C@H]1Cc1ccc(OCCCCl)c(O)c1-3 [D39, (9R)-4-(3-chloropropoxy)-10-methyl-10-azatetracyclo[7.7.1.0²,⁷.0¹³,¹⁷]heptadeca-1(17),2,4,6,13,15-hexaen-3-ol] | 259 | 
9 | 3650 | CN1CCc2cccc3c2[C@H]1Cc1ccc(OCCCO)c(O)c1-3 [D38, (9R)-4-(3-hydroxypropoxy)-10-methyl-10-azatetracyclo[7.7.1.0²,⁷.0¹³,¹⁷]heptadeca-1(17),2,4,6,13,15-hexaen-3-ol] | 165 | 
10 |  | CN1CCc2cccc3c2[C@H]1Cc1ccc(OCCCc2ccccc2)c(O)c1-3 [D37, (9R)-10-methyl-4-(3-phenylpropoxy)-10-azatetracyclo[7.7.1.0²,⁷.0¹³,¹⁷]heptadeca-1(17),2,4,6,13,15-hexaen-3-ol] | 186 | 
11 |  | CN1CCc2cccc3c2[C@H]1Cc1ccc(OCCc2ccccc2)c(O)c1-3 [D48, (9R)-10-methyl-4-(2-phenylethoxy)-10-azatetracyclo[7.7.1.0²,⁷.0¹³,¹⁷]heptadeca-1(17),2,4,6,13,15-hexaen-3-ol] | 128 | 
12 |  | CN1CCc2cccc3c2[C@H]1Cc1ccc(O)c(O)c1-3 [D15, (9R)-10-methyl-10-azatetracyclo[7.7.1.0²,⁷.0¹³,¹⁷]heptadeca-1(17),2,4,6,13,15-hexaene-3,4-diol, reference compound] | 613 | 
13 |  | CCCN1CCc2cccc3c2[C@H]1Cc1ccc2c(c1-3)OCO2 [D5, (12R)-13-propyl-4,6-dioxa-13-azapentacyclo[10.7.1.0²,¹⁰.0³,⁷.0¹⁶,²⁰]icosa-1(20),2,7,9,16,18-hexaene] | 2110 | 
14 | 254 | CN1CCc2cccc3c2[C@H]1Cc1ccc(OCCCN)c(O)c1-3 [D27, (9R)-4-(3-aminopropoxy)-10-methyl-10-azatetracyclo[7.7.1.0²,⁷.0¹³,¹⁷]heptadeca-1(17),2,4,6,13,15-hexaen-3-ol] | 221 | 
15 |  | COc1cc2c(cc1OC)-c1c3c(c(OC)c4c1C(C2)N(C)CC4)OCO3 (centres unmarked) [D20, 7,16,17-trimethoxy-11-methyl-3,5-dioxa-11-azapentacyclo[10.7.1.0²,⁶.0⁸,²⁰.0¹⁴,¹⁹]icosa-1(20),2(6),7,14,16,18-hexaene] | 798 | 
16 |  | CN1CCc2cc3c(c4c2[C@@H]1Cc1ccccc1-4)OCO3 [D18, (12S)-11-methyl-3,5-dioxa-11-azapentacyclo[10.7.1.0²,⁶.0⁸,²⁰.0¹⁴,¹⁹]icosa-1(20),2(6),7,14,16,18-hexaene] | 492 | 
17 |  | CCCCOc1ccc2c(c1O)-c1cccc3c1[C@@H](C2)N(C)CC3 [D36, (9R)-4-butoxy-10-methyl-10-azatetracyclo[7.7.1.0²,⁷.0¹³,¹⁷]heptadeca-1(17),2,4,6,13,15-hexaen-3-ol] | 123 | 
18 |  | COc1cc(O)c2c(c1)C[C@@H]1c3c(cc4c(c3-2)OCO4)CCN1C [D10, (12R)-16-methoxy-11-methyl-3,5-dioxa-11-azapentacyclo[10.7.1.0²,⁶.0⁸,²⁰.0¹⁴,¹⁹]icosa-1(20),2(6),7,14,16,18-hexaen-18-ol] | 750 | 
19 |  | CN1CCc2cccc3c2[C@@H]1Cc1ccc(O)c(O)c1-3 [D24, (9S)-10-methyl-10-azatetracyclo[7.7.1.0²,⁷.0¹³,¹⁷]heptadeca-1(17),2(7),3,5,13,15-hexaene-3,4-diol] | 1030 | 
20 |  | CN1CCc2cccc3c2[C@H]1Cc1ccc(OCc2ccccc2)c(O)c1-3 [D47, (9R)-4-(benzyloxy)-10-methyl-10-azatetracyclo[7.7.1.0²,⁷.0¹³,¹⁷]heptadeca-1(17),2,4,6,13,15-hexaen-3-ol] | 124 | 
21 |  | CCCN1CCc2cccc3c2[C@H]1Cc1ccc(O)c(O)c1-3 [D3, (9R)-10-propyl-10-azatetracyclo[7.7.1.0²,⁷.0¹³,¹⁷]heptadeca-1(17),2,4,6,13,15-hexaene-3,4-diol] | 186 | 
22 |  | CN1CCc2cccc3c2[C@H]1Cc1ccc(OCCC(c2ccccc2)c2ccccc2)c(O)c1-3 [D54, (9R)-4-(3,3-diphenylpropoxy)-10-methyl-10-azatetracyclo[7.7.1.0²,⁷.0¹³,¹⁷]heptadeca-1(17),2,4,6,13,15-hexaen-3-ol] | 497 | 
23 |  | COc1cc2c3c(c1O)-c1c(ccc(OC)c1OC)C[C@H]3N(C)CC2 [D26, (9R)-3,4,15-trimethoxy-10-methyl-10-azatetracyclo[7.7.1.0²,⁷.0¹³,¹⁷]heptadeca-1(17),2,4,6,13,15-hexaen-16-ol] | 289 | 
24 |  | COc1cccc2c1C[C@@H]1c3c(cc4c(c3-2)OCO4)CCN1C [D9, (12R)-15-methoxy-11-methyl-3,5-dioxa-11-azapentacyclo[10.7.1.0²,⁶.0⁸,²⁰.0¹⁴,¹⁹]icosa-1(20),2(6),7,14,16,18-hexaene] | 393 | 
25 |  | CCOC(=O)c1ccc(NC2CCCCC2)c(N)c1 [ferrostatin-1, reference compound] |  | significant decrease

Row | Compound | EC50 [2] [nM] | EC50 [1] [nM] | GDF-15 elevation in cell supernatant [3]
26 | Oc1ccc2c(c1O)-c1cccc3c1[C@@H](C2)NCC3 [D4, (9R)-10-azatetracyclo[7.7.1.0²,⁷.0¹³,¹⁷]heptadeca-1(17),2,4,6,13,15-hexaene-3,4-diol] | 582 | 1990 | 
